In publication PMC4269305, “The impact of P-gp functionality on non-steady state relationships between CSF and brain extracellular fluid” (Journal of Pharmacokinetics and Pharmacodynamics, 2013):

Columns and labels:
[1] = Plasma protein binding by Centrifree ultrafiltration; type: in vitro ADME; conditions: male, Wistar WU, rat, plasma (from dosed rats and from spiked blank blood); linear; not affected by co-administration of tariquidar
Experimental: […]. […] All blood samples were temporarily stored in heparin (10 IU) coated Eppendorf cups. […]. The spiked blood samples were then incubated in a shaking water bath at 37 °C for 30 min.
Plasma protein binding was determined with Centrifree® ultrafiltration devices (Millipore BV, Etten-Leur, the Netherlands). All procedures were performed according to the user’s manual. The ultrafiltrate was diluted ten times with saline before the analysis.

[2] = target: Na^+-K^+-ATPase; conditions: cited from earlier work
[3] = pKa and ionization; type: physicochemical
Text: Therefore, based on our data, it appears that quinidine is also transported by other transporters at the BBB and BCSFB, in the direction of the brain. However, there is no direct information in literature to support this. […] The question remains how this relates to the in vivo situation, like ours. […] OCTs have been localized both at the BBB [66], as well as at the BCSFB [67].

[4] = system: P-gp; parameters: method as in PMID 11212278; conditions: cited from earlier work
[5] = parameters: method as in PMID 18632828, PMID 21199574; conditions: 15 mg/kg tariquidar; up to 3 h after administration; cited from earlier work

Row | fraction unbound at 30 min [1] | % ionized ([3]; pH 7.3) | % ionized ([3]; pH 7.4) | Structure (SMILES) | reported IC50 for inhibition of Na+-K+-ATPase activity [2] | half-maximum inhibition constant (IC50) for P-gp [4] | plasma and brain concentrations relative to the IC50 value (fold higher) [5]
1 | 0.135 | 80% | 76% | C=C[C@H]1C[N@@]2CC[C@H]1C[C@@H]2[C@@H](O)c1ccnc2ccc(OC)cc12 [quinidine, Quinidine] | ~ 30 μg/ml | – | –
2 | – | – | – | COc1cc2c(cc1OC)CN(CCc1ccc(NC(=O)c3cc(OC)c(OC)cc3NC(=O)c3cnc4ccccc4c3)cc1)CC2 [tariquidar, Tariquidar] | – | approximately 25 ng/ml | over 50 -fold
